Data taken from patent publication US6642217B2, “Triterpenes having human antifungal and antiyeast activity” (Naturtek, LLC, priority 2000, dated 2003).

Key:
Microsporum audouinii = assay: Summary of anti-fungal assays (direct addition, agar dilution, liquid culture); assay type: cell-based; conditions: stated in words (Tables 1a/1b, text to Table 5)
Description: This example summarizes the results of various other assays of the anti-fungal activity of betulin derivatives. Table 5 summarizes results using different assay methods—direct addition, agar dilution, and direct addition to liquid culture, as disclosed in the previous three Examples. In some cases, only one type of assay was done with a compound. In other cases, the compound was tested by multiple assays.

Trichophyton rubrum [1] = assay: Agar dilution method, growth on Sabouraud dextrose agar slants; assay type: cell-based; design: key: +++: Maximum Fungal Growth; ++: Moderate Fungal Growth; +: Minimum Fungal Growth; +/−: Very little Fungal Growth; −: No Fungal Growth; conditions: 12th day after inoculation
In short: (§1)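 Autoclaved Sabouraud dextrose agar is cooled to 45 °C, dosed with compound from a DMSO solution, and solidified as slants. Fungi are then inoculated and the slants held at 25-28 °C for 10-12 days.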

Microsporum gypseum [2] = assay: as above; assay type: cell-based; design: key: +++: Maximum Fungal Growth; ++: Moderate Fungal Growth; +: Minimum Fungal Growth; +/−: Very little Fungal Growth; −: No Fungal Growth; conditions: 12th day after inoculation
In short: as §1

Pityrosporum ovale [3] = assay: as above; assay type: cell-based; design: key: +++: Maximum Fungal Growth; ++: Moderate Fungal Growth; +: Minimum Fungal Growth; +/−: Very little Fungal Growth; −: No Fungal Growth; conditions: 12th day after inoculation
In short: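 Readout: fungal growth, noted on alternate days across a 10-12 day incubation at 25-28 °C. Test slants were Sabouraud dextrose agar with compound incorporated from DMSO before solidification.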

Microsporum canis [4] = assay: as above; assay type: cell-based; design: key: +++: Maximum Fungal Growth; ++: Moderate Fungal Growth; +: Minimum Fungal Growth; +/−: Very little Fungal Growth; −: No Fungal Growth; conditions: 12th day after inoculation
In short: as §1

Epidermophyton floccosum [5] = assay: as above; assay type: cell-based; design: key to Fungal growth: +++: Maximum Fungal Growth; ++: Moderate Fungal Growth; +: Minimum Fungal Growth; +/−: Very little Fungal Growth; −: No Fungal Growth; conditions: 12th day after inoculation
In short: as §1

herpes simplex virus = conditions: cited from earlier work
Microsporum audouinni [6] = assay: Direct addition method, solid compound in Sabouraud dextrose agar; assay type: cell-based, Microsporum audouinii; design: key to Fungal growth: +++: Maximum Fungal Growth; ++: Moderate Fungal Growth; +: Minimum Fungal Growth; +/−: Very little Fungal Growth; −: No Fungal Growth; conditions: for Fungal growth: 4 mg/mL of agar, 12th day after inoculation
In short: (§2)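 Direct-addition agar test: compound (4 mg/ml final, added undissolved to molten Sabouraud dextrose agar) in slants, incubated 25-28° C. with growth noted on day 12.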

Trichophyton tonsuran [7] = assay: Agar dilution method, growth on Sabouraud dextrose agar slants; assay type: cell-based, Trichophyton tonsurans; design: key: +++: Maximum Fungal Growth; ++: Moderate Fungal Growth; +: Minimum Fungal Growth; +/−: Very little Fungal Growth; −: No Fungal Growth; conditions: 12th day after inoculation
In short: as §1

Epidermophyton floccosum [8] = assay: Direct addition method, solid compound in Sabouraud dextrose agar; assay type: cell-based; design: key: +++: Maximum Fungal Growth; ++: Moderate Fungal Growth; +: Minimum Fungal Growth; +/−: Very little Fungal Growth; −: No Fungal Growth; conditions: 4 mg/mL of agar; 12th day after inoculation
In short: as §2

Trichophyton rubrum [9] = assay: as above; assay type: cell-based; design: key: +++: Maximum Fungal Growth; ++: Moderate Fungal Growth; +: Minimum Fungal Growth; +/−: Very little Fungal Growth; −: No Fungal Growth; conditions: 4 mg/mL of agar; 12th day after inoculation
In short: as §2

[10] = test system: Trichophyton mentagrophytes; assay: as above; assay type: cell-based; design: key: +++: Maximum Fungal Growth; ++: Moderate Fungal Growth; +: Minimum Fungal Growth; +/−: Very little Fungal Growth; −: No Fungal Growth; conditions: 4 mg/mL of agar; 12th day after inoculation
In short: as §2

Microsporum gypseum [11] = assay: as above; assay type: cell-based; design: key: +++: Maximum Fungal Growth; ++: Moderate Fungal Growth; +: Minimum Fungal Growth; +/−: Very little Fungal Growth; −: No Fungal Growth; conditions: 4 mg/mL of agar; 12th day after inoculation
In short: as §2

Pityrosporum ovale [12] = assay: as above; assay type: cell-based; design: key: +++: Maximum Fungal Growth; ++: Moderate Fungal Growth; +: Minimum Fungal Growth; +/−: Very little Fungal Growth; −: No Fungal Growth; conditions: 4 mg/mL of agar; 12th day after inoculation
In short: as §2

Microsporum canis [13] = assay: as above; assay type: cell-based; design: key: +++: Maximum Fungal Growth; ++: Moderate Fungal Growth; +: Minimum Fungal Growth; +/−: Very little Fungal Growth; −: No Fungal Growth; conditions: 4 mg/mL of agar; 12th day after inoculation
In short: as §2

[14] = test system: Trichophyton mentagrophyte; assay: Agar dilution method, growth on Sabouraud dextrose agar slants; assay type: cell-based, Trichophyton mentagrophytes; design: key to Fungal growth: +++: Maximum Fungal Growth; ++: Moderate Fungal Growth; +: Minimum Fungal Growth; +/−: Very little Fungal Growth; −: No Fungal Growth; conditions: 12th day after inoculation
In short: as §1

Microsporum audouinni [15] = assay: as above; assay type: cell-based, Microsporum audouinii; design: key: +++: Maximum Fungal Growth; ++: Moderate Fungal Growth; +: Minimum Fungal Growth; +/−: Very little Fungal Growth; −: No Fungal Growth; conditions: 12th day after inoculation
In short: as §1

Trichophyton rubrum [16] = assay: Direct addition method, solid compound in Sabouraud dextrose agar; assay type: cell-based; conditions: against Trichophyton rubrum
Description: (§3) Direct addition method. Sabouraud dextrose agar was prepared according to the manufacturer's instructions and 5.0 ml was dispensed in each 100×25 mm tube. The tubes were autoclaved. To each tube containing 5.0 ml of liquid agar at 45° C., 20 mg of solid test compound was added, to give a final concentration of 4 mg/ml. The agar was solidified in slants. The fungal cultures were then innoculated. The slants were incubated at 25-28 ° C. for 10-12 days, and the growth of the fungus was recorded every second day. The results in Table 2 indicate growth at the 12th day of inoculation.

Trichophyton tonsuran [17] = assay: as above; assay type: cell-based, Trichophyton tonsurans; design: key: +++: Maximum Fungal Growth; ++: Moderate Fungal Growth; +: Minimum Fungal Growth; +/−: Very little Fungal Growth; −: No Fungal Growth; conditions: 4 mg/mL of agar; 12th day after inoculation
Description: as §3

Pityrosporum ovale [18] = assay: Direct addition into the Pityrosporum agar; assay type: cell-based; design: key to Pityrosporum ovale growth: +++: Maximum Growth; ++: Moderate Growth; +: Minimum Growth; +/−: Very Little Growth; −: No Growth; conditions: 4 mg/ml in the agar; 18 hours after inoculation
Description: as §3, with “The slants were incubated at 25-28 ° C. for 10-12 days, and the growth of the fungus was recorded every second day. The results in Table 2 indicate growth at the 12th day of inoculation.” left out

Microsporum canis [19] = assay: Direct addition method, solid compound in Sabouraud dextrose agar; assay type: cell-based; design: key: +++: Maximum Fungal Growth; ++: Moderate Fungal Growth; +: Minimum Fungal Growth; +/−: Very Little Fungal Growth; −: No Fungal Growth; conditions: 4 mg/mL of agar; 12th day after inoculation
Description: as §3

Microsporum canis [20] = assay: as above; assay type: cell-based; conditions: against Microsporum canis
Description: as §3

C=C(C)[C@@H]1CC[C@]2(CO)CC[C@]3(C)[C@H](CC[C@@H]4[C@@]5(C)CC[C@H](O)C(C)(C)[C@@H]5CC[C@]43C)[C@@H]12 [Betulin, lup-20(29)-ene-3,28-diol]
+++: Fungal growth (Microsporum gypseum [2]; 12.5 μg/ml) | Fungal growth (Pityrosporum ovale [3]; 12.5 μg/ml) | Fungal growth (Pityrosporum ovale [3]; 25 μg/ml) | Fungal growth (Trichophyton tonsuran [7]; 12.5 μg/ml)
+/−: Fungal growth (Pityrosporum ovale [3]; 100 μg/ml) | Fungal growth (Microsporum canis [4]; 50 μg/ml) | Fungal growth ([14]; 50 μg/ml) | Fungal growth (Microsporum audouinni [15]; 12.5 μg/ml) | Fungal growth (Microsporum audouinni [15]; 25 μg/ml)
−: Fungal growth (Trichophyton rubrum [1]; 100 μg/ml) | Fungal growth (Microsporum gypseum [2]; 100 μg/ml) | Fungal growth (Microsporum canis [4]; 100 μg/ml) | Fungal growth (Epidermophyton floccosum [5]; 50 μg/ml) | Fungal growth (Epidermophyton floccosum [5]; 100 μg/ml) | Fungal growth (Microsporum audouinni [6]) | Fungal growth (Trichophyton tonsuran [7]; 100 μg/ml) | Fungal growth (Epidermophyton floccosum [8]) | Fungal growth (Trichophyton rubrum [9]) | Fungal growth (Pityrosporum ovale [12]) | Fungal growth ([14]; 100 μg/ml) | Fungal growth (Microsporum audouinni [15]; 50 μg/ml) | Fungal growth (Microsporum audouinni [15]; 100 μg/ml)
against Microsporum audouinii: best anti-fungal or anti-yeast activity by the direct addition method (Microsporum audouinni [6]; against Microsporum audouinii)
anti-viral activity: Anti-viral activity against herpes simplex virus (herpes simplex virus)
++: Fungal growth (Trichophyton rubrum [1]; 12.5 μg/ml) | Fungal growth (Trichophyton rubrum [1]; 25 μg/ml) | Fungal growth (Microsporum gypseum [2]; 25 μg/ml) | Fungal growth (Microsporum gypseum [2]; 50 μg/ml) | Fungal growth (Pityrosporum ovale [3]; 50 μg/ml) | Fungal growth (Microsporum canis [4]; 12.5 μg/ml) | Fungal growth (Trichophyton tonsuran [7]; 25 μg/ml) | Fungal growth (Trichophyton tonsuran [7]; 50 μg/ml) | Fungal growth [10] | Fungal growth (Microsporum gypseum [11]) | Fungal growth ([14]; 12.5 μg/ml) | Fungal growth (Trichophyton tonsuran [17])
against Trichophyton rubrum: best anti-fungal or anti-yeast activity by the direct addition method (Trichophyton rubrum [16])
Microsporum audouinii,: Active against Microsporum audouinii (Microsporum audouinii)
+: Fungal growth (Trichophyton rubrum [1]; 50 μg/ml) | Fungal growth (Microsporum canis [4]; 25 μg/ml) | Fungal growth (Epidermophyton floccosum [5]; 12.5 μg/ml) | Fungal growth (Epidermophyton floccosum [5]; 25 μg/ml) | Fungal growth (Microsporum canis [13]) | Fungal growth ([14]; 25 μg/ml)

C=C(C)[C@@H]1CC[C@]2(COC(=O)CN)CC[C@]3(C)[C@H](CC[C@@H]4[C@@]5(C)CC[C@H](OC(=O)CN)C(C)(C)[C@@H]5CC[C@]43C)[C@@H]12 [Betulin-3,28-diglycine]
against Microsporum canis: best anti-fungal or anti-yeast activity by the direct addition method (Microsporum canis [20])
+/−: Fungal growth (Microsporum canis [19])
+: Pityrosporum ovale growth (Pityrosporum ovale [18]) | Fungal growth (Microsporum audouinni [6]) | Fungal growth (Trichophyton rubrum [9])
−: Fungal growth (Epidermophyton floccosum [8]) | Fungal growth (Pityrosporum ovale [12])
